Test results from ChEMBL document CHEMBL4024701, “Optimization and Structure-Activity Relationships of Phosphinic Pseudotripeptide Inhibitors of Aminopeptidases That Generate Antigenic Peptides” (J Med Chem, 2016).
One block for each compound: values may come before it.

Legend:
[1] = molecular target: T1, Leucyl-cystinyl aminopeptidase (Mus musculus) (UniProt Q8C129); test: (§1) Inhibition of IRAP in C57Bl/6 mouse CD8 alpha-positive cells assessed as reduction of IRAP-dependent cross-presentation activity by measuring IL2 level in CD8+ T-cells isolated from lymph nodes of Rag-1-/- C57Bl/6 OT-I mouse at 3 to 3333 nM pre-incubated for 60 mins followed by addition of ovalbumin measured after 6 hrs by sandwich ELISA
T1 sequence (whole entry): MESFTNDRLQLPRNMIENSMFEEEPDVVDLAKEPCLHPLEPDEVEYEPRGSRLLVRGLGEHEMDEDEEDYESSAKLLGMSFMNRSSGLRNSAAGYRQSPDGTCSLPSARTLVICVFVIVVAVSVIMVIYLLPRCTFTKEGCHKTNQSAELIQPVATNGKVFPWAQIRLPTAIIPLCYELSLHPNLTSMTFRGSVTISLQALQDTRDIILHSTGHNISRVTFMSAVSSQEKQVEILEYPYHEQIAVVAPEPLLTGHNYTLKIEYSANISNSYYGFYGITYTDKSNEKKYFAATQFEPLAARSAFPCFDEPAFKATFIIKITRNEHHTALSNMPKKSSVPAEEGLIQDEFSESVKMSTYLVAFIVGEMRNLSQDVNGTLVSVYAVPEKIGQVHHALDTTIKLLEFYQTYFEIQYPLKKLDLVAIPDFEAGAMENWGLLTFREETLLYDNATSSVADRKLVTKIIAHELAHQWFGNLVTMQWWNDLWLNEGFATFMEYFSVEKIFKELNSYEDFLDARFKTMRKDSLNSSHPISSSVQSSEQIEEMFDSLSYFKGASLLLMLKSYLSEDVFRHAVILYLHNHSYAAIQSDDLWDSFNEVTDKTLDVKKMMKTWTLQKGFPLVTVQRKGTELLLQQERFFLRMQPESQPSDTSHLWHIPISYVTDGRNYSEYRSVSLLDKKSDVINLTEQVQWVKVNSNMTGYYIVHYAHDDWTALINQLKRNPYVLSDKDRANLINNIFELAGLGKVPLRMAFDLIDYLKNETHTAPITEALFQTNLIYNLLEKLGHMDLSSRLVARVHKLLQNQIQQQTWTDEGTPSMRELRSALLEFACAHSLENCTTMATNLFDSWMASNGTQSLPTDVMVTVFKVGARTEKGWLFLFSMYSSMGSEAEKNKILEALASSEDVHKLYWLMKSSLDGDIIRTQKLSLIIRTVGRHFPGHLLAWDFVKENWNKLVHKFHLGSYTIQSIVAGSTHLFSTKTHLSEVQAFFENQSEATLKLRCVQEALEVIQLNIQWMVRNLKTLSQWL

[2] = molecular target: T1, Leucyl-cystinyl aminopeptidase (Mus musculus); test: as §1, with “CD11b-positive dendritic” for “CD8 alpha-positive”
[3] = (§2) Effect on cross-presentation activity of IRAP-/- knockdown C57Bl/6 mouse CD8alpha-positive T cells assessed as IL2 level in CD8+ T-cells isolated from lymph nodes of Rag-1-/- C57Bl/6 OT-I mouse at 3 to 1000 nmol/L pre-incubated for 60 mins followed by addition of ovalbumin measured after 6 hrs by sandwich ELISA assay; type: ADME, cell-based
[4] = as §2, with “CD11b-positive dendritic” for “CD8alpha-positive T”; type: ADME, cell-based; conditions: cd11b-positive dendritic cell
[5] = as §2, with “CD11b-positive dendritic” for “CD8alpha-positive T”, “3.3 uM” for “3 to 1000 nmol/L”; type: ADME, cell-based; conditions: cd11b-positive dendritic cell
[6] = Effect on cross-presentation activity of IRAP-/- knockdown C57Bl/6 mouse CD8alpha-positive dendritic cells assessed as IL2 level in CD8+ T-cells isolated from lymph nodes of Rag-1-/- C57Bl/6 OT-I mouse at 3.3 uM pre-incubated for 60 mins followed by addition of ovalbumin measured after 6 hrs by sandwich ELISA assay; conditions: cd8alpha-positive dendritic cell
[7] = molecular target: Endoplasmic reticulum aminopeptidase 1 (Homo sapiens, UniProt Q9NZ08); test: Inhibition of ERAP1 (unknown origin) expressed in Hi5 cells by in vitro fluorimetric assay
Chain of Endoplasmic reticulum aminopeptidase 1 (Q9NZ08 whole entry): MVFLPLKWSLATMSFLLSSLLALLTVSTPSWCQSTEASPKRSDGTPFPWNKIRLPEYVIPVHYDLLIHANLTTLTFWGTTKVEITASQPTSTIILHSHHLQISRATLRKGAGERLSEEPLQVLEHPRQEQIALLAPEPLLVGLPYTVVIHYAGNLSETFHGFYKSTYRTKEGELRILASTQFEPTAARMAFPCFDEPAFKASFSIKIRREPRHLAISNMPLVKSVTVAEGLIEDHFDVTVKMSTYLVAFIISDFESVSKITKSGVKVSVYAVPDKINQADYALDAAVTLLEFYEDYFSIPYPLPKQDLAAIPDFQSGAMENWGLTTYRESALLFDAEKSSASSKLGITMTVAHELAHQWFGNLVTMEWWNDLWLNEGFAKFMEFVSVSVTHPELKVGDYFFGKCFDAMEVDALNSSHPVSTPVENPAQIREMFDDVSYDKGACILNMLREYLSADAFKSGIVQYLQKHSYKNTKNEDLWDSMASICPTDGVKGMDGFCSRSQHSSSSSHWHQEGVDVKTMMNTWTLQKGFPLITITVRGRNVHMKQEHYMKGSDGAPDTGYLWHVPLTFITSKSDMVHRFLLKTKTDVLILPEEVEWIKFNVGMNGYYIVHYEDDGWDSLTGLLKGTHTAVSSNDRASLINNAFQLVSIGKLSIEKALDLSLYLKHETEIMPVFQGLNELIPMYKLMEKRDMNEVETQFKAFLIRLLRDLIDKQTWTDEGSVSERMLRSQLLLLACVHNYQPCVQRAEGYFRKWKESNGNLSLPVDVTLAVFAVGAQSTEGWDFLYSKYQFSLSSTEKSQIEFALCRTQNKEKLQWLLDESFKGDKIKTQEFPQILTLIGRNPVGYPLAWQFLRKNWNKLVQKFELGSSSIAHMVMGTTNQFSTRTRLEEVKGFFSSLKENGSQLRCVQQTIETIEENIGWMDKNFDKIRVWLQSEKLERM

[8] = molecular target: Leucyl-cystinyl aminopeptidase (Homo sapiens, UniProt Q9UIQ6); test: Inhibition of IRAP (unknown origin) expressed in HEK 293S GnTI(-) cells by in vitro fluorimetric assay; type: cell-based
Chain of Leucyl-cystinyl aminopeptidase (Q9UIQ6 whole entry): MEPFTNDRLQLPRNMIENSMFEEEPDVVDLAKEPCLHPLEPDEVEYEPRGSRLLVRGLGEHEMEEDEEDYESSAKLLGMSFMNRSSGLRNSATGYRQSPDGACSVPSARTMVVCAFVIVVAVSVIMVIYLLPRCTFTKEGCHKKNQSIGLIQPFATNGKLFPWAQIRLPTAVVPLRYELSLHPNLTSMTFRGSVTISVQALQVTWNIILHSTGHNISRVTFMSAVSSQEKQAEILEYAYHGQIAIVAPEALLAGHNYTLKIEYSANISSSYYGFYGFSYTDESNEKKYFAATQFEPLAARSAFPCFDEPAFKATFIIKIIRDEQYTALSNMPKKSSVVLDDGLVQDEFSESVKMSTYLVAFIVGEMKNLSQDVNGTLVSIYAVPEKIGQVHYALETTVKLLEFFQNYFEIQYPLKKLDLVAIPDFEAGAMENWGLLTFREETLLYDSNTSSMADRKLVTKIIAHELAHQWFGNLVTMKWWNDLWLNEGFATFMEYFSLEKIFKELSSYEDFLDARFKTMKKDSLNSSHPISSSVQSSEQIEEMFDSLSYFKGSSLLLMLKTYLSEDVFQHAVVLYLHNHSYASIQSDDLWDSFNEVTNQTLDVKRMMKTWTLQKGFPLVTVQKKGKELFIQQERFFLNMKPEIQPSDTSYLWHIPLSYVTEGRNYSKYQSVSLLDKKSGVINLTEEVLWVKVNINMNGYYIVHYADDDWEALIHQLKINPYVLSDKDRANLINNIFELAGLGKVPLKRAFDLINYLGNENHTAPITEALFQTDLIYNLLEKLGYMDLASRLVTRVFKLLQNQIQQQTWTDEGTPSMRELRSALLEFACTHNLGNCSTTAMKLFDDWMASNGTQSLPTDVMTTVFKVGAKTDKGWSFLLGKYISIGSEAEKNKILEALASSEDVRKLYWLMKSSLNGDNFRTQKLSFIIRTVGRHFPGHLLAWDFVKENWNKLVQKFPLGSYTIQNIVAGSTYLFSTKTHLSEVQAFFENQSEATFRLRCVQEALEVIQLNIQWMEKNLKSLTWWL

inhibition [1]: Dose-dependent effect
inhibition [2]: Dose-dependent effect
SMILES: NC(=O)[C@H](Cc1ccccc1)NC(=O)[C@H](CC(c1ccccc1)c1ccccc1)CP(=O)(O)[C@@H](N)CCc1ccccc1
Activity [3]: Non-Toxic
Activity [4]: Non-Toxic
Activity [5]: Toxic
Activity [6]: Toxic

IC50 [7]: > 100 µM
SMILES: NC(=O)[C@H](Cc1ccccc1)NC(=O)[C@@H](Cc1cc(-c2ccccc2)cc(-c2ccccc2)c1)CP(=O)(O)[C@@H](N)CCc1ccccc1

IC50 [8]: 2 nM
SMILES: C#CC[C@H](CP(=O)(O)[C@@H](N)CCc1ccccc1)C(=O)N[C@@H](Cc1ccccc1)C(N)=O

IC50 [7]: > 35 µM
SMILES: NC(=O)[C@H](Cc1ccccc1)NC(=O)[C@H](Cc1cc(-c2ccccc2)cc(-c2ccccc2)c1)CP(=O)(O)[C@@H](N)CCc1ccccc1
